Source: patent US20240254121A1, “ALKYLAMIDE SUBSTITUTED, ANNULATED IMIDAZOLES AND USE THEREOF AS INSECTICIDES” (Bayer Aktiengesellschaft, priority 2021, published 2024)

Key:
Assay type in all cases: in vivo
[1] = system: adult flies Musca domestica strain WHO-N; experiment: Musca domestica test (MUSCDO surface treatment & contact assay); conditions: 24 hours after contact, read-out: efficacy (mortality); for mortality at 20 mg/m2: surface concentration 20 mg/m^2, 30 minutes exposure
Description: Musca domestica Test (MUSCDO Surface Treatment & Contact Assay) • Solvent: Aceton+2000 ppm rapeseed oil methyl ester (RME)
(§1) In order to produce a sufficient, active ingredient containing solution it is necessary to solve the test compound in the solvent-mix (acetone at 2 mg/ml/RME 2000 ppm). This solution is pipetted onto a glazed tile and after evaporation of the acetone, adult flies of the species Musca domestica strain WHO-N are placed onto the dried surface. The exposure time is 30 minutes. Mortality in percent (%) is determined 24 hours after contact of the insects to the treated surface. 100% mortality means that all tested insects are dead, whereas 0% means that no insect died.

[2] = system: fall armyworm larvae (Spodoptera frugiperda); experiment: Spodoptera frugiperda spray test; conditions: 168 h, maize leaf sections, after 7 days
Description: Spodoptera frugiperda—Spray Test • Solvent: 78.0 parts by weight acetone • 1.5 parts by weight dimethylformamide • Emulsifier: alkylarylpolyglycol ether
(§2) To produce a suitable preparation of active compound, 1 part by weight of active compound is mixed with the stated amount of solvents and is diluted with water, containing an emulsifier concentration of 1000 ppm, to the desired concentration. Further test concentrations are prepared by dilution with emulsifier containing water.
Maize (Zea mays) leaf sections are sprayed with a preparation of the active ingredient of the desired concentration. Once dry, the leaf sections are infested with fall armyworm larvae (Spodoptera frugiperda).
After 7 days mortality in % is determined. 100% means all caterpillars have been killed and 0% means none of the caterpillars have been killed.

[3] = system: adult mosquitoes Aedes aegypti strain MONHEIM; experiment: Aedes aegypti test (AEDSAE surface treatment & contact assay); conditions: 24 hours after contact, read-out: efficacy (mortality); for mortality at 20 mg/m2: surface concentration 20 mg/m^2, 30 minutes exposure; for mortality at 4 mg/m2: surface concentration 4 mg/m^2, 30 minutes exposure
Description: Aedes aegypti Test (AEDSAE Surface Treatment & Contact Assay) • Solvent: Aceton+2000 ppm rapeseed oil methyl ester (RME)
as §1, with “mosquitoes” for “flies”, “Aedes aegypti” for “Musca domestica”, “MONHEIM” for “WHO-N”

[4] = system: cattle tick larvae (Rhipicephalus microplus); experiment: Rhipicephalus (Boophilus) microplus in-vitro contact test, larval cattle tick (strain Parkhurst, resistant against synthetic pyrethroids); conditions: after 48 hours, read-out: efficacy (larvae dead or moribund); for pest or weed control at 1 µg/cm2, 100 g/ha: 1 μg/cm^2 (=100 g/ha); for pest or weed control at 5 µg/cm2, 500 g/ha: 5 μg/cm^2 (=500 g/ha)
Description: Rhipicephalus (Boophilus) Microplus—In-Vitro Contact Tests Larval Cattle Tick (Strain Parkhurst, Resistant Against Synthetic Pyrethroids)
9 mg compound is solved in 1 mL acetone and diluted with acetone to the desired concentration. 250 μL of the test solution is filled in 25 mL glass test tubes and homogeneously distributed on the inner walls by rotation and tilting on a shaking device (2 h at 30 rpm). With a compound concentration of 900 ppm, an inner surface of 44.7 cm^2 and a homogeneous distribution, a dose of 5 μg/cm^2 is achieved.
After the solvent has evaporated, each test tube is filled with 20-50 cattle tick larvae (Rhipicephalus microplus), closed with a perforated lid and incubated in a horizontal position at 85% relative humidity and 27° C. in an incubator. After 48 hours efficacy is determined. The larvae are patted on the ground of the tubes and negative geotactic behavior is recorded.
An efficacy of 100% means all larvae are dead or moribund; 0% means no larvae are dead or moribund.

[5] = system: adult unfed cat fleas (Ctenocephalides felis); experiment: Ctenocephalides felis oral test; conditions: 48 h, 100 ppm in citrated cattle blood, after 2 days
Description: Ctenocephalides felis—Oral Test • Solvent: Dimethyl Sulfoxide
To produce a suitable preparation of active compound, 10 mg of active compound are dissolved in 0.5 mL solvent, and the concentrate is diluted with citrated cattle blood to the desired concentration.
Approximately 20 adult unfed cat fleas (Ctenocephalides felis) are placed in a flea chamber whose top and bottom is covered with gauze. A chamber whose bottom is sealed with parafilm, is filled with the blood-compound solution and placed on top of the flea chamber, so that the fleas can suck the blood. The blood chamber is heated to 37° C. whereas the flea chamber is kept at room temperature.
After 2 days mortality in % is determined. 100% means all the fleas have been killed; 0% means none of the fleas have been killed.

[6] = system: adult engorged female ticks (Rhipicephalus microplus); experiment: Rhipicephalus (Boophilus) microplus injection test; conditions: 4 μg/tick, egg deposition after 7 days
Description: Rhipicephalus (Boophilus) Microplus—Injection Test
• Solvent: Dimethyl Sulfoxide
To produce a suitable preparation of active compound, 10 mg of active compound are dissolved in 0.5 mL solvent, and the concentrate is diluted with solvent to the desired concentration.
Five adult engorged female ticks (Rhipicephalus microplus) are injected with 1 μL compound solution into the abdomen. The ticks are transferred into replica plates and incubated in a climate chamber.
After 7 days egg deposition of fertile eggs is monitored. Eggs where fertility is not visible are stored in a climate chamber till hatching after about 42 days. An efficacy of 100% means all eggs are infertile; 0% means all eggs are fertile.

[7] = system: brown planthopper (Nilaparvata lugens); experiment: Nilaparvata lugens spray test; conditions: 96 h, rice plants, after 4 days
Description: Nilaparvata lugens—Spray Test • Solvent: 78.0 parts by weight of acetone • 1.5 parts by weight of dimethylformamide • Emulsifier: alkylarylpolyglycol ether
as §2
Rice plants (Oryza sativa) are sprayed with a preparation of the active ingredient of the desired concentration and the plants are infested with the brown planthopper (Nilaparvata lugens).
After 4 days mortality in % is determined. 100% means all planthoppers have been killed and 0% means none of the planthoppers have been killed.

[8] = system: larvae of the banded cucumber beetle (Diabrotica balteata); experiment: Diabrotica balteata spray test; conditions: 168 h, 100 g/ha (=32 μg/well), wheat seeds, after 7 days, read-out: efficacy (seedling growth)
Description: Diabrotica Balteata—Spray Test
• Solvent: 78.0 Parts by Weight of Acetone • 1.5 parts by weight of dimethylformamide • Emulsifier: Alkylarylpolyglycol Ether
as §2, with “solvent,” for “solvents”, “and the concentrate” for “and”
Soaked wheat seeds (Triticum aestivum) are placed in a multiple well plate filled with agar and some water and are incubated for 1 day to germinate (5 seeds per well). The germinated wheat seeds are sprayed with a test solution containing the desired concentration of the active ingredient. Afterwards each unit is infected with 10-20 larvae of the banded cucumber beetle (Diabrotica balteata).
After 7 days efficacy in % is determined. 100% means all the seedlings have grown up like in the untreated, uninfected control; 0% means none of the seedlings have grown.

[9] = system: southern root-knot nematode (Meloidogyne incognita); experiment: Meloidogyne incognita test; conditions: 20 ppm, lettuce, after 14 days
Description: Meloidogyne Incognita—Test
• Solvent: 125.0 parts by weight of acetone
(§3) To produce a suitable preparation of active compound, 1 part by weight of active compound is mixed with the stated amount of solvent, and the concentrate is diluted with water to the desired concentration.
Vessels are filled with sand, a solution of the active ingredient, a suspension containing eggs and larvae of the southern root-knot nematode (Meloidogyne incognita) and lettuce seeds. The lettuce seeds germinate and the seedlings grow. Galls develop in the roots.
After 14 days the nematicidal effect in percent is determined by the formation of galls. 100% means no galls were found and 0% means the number of galls found on the roots of the treated plants was equal to that in untreated control plants.

[10] = system: larvae of the southern green stink bug (Nezara viridula); experiment: Nezara viridula spray test; conditions: 96 h, barley plants, after 4 days
Description: Nezara viridula—Spray Test • Solvent: 78.0 parts by weight of acetone • 1.5 parts by weight of dimethylformamide • Emulsifier: alkylarylpolyglycol ether
as §2, with “solvent,” for “solvents”, “and the concentrate” for “and”
Barley plants (Hordeum vulgare) are sprayed with a test solution containing the desired concentration of the active ingredient and are infested with larvae of the southern green stink bug (Nezara viridula).
After 4 days mortality in % is determined. 100% means all the stink bugs have been killed; 0% means none of the stink bugs have been killed.

[11] = system: green peach aphid (Myzus persicae); experiment: Myzus persicae spray test; conditions: foliar, 120 h, 100 g/ha, Chinese cabbage leaf disks, after 5 days
Description: Myzus persicae—Spray Test • Solvent: 78.0 parts by weight acetone • 1.5 parts by weight dimethylformamide • Emulsifier: alkylarylpolyglycol ether
as §2
Chinese cabbage (Brassica pekinensis) leaf disks infected with all instars of the green peach aphid (Myzus persicae), are sprayed with a preparation of the active ingredient of the desired concentration.
(§4) After 5 days mortality in % is determined. 100% means all aphids have been killed and 0% means none of the aphids have been killed.

[12] = system: adult mosquitoes Culex quinquefasciatus strain P00; experiment: Culex quinquefasciatus test (CULXFA surface treatment & contact assay); conditions: 24 hours after contact, read-out: efficacy (mortality)
Description: Culex quinquefasciatus Test (CULXFA Surface Treatment & Contact Assay) • Solvent: Aceton+2000 ppm rapeseed oil methyl ester (RME)
as §1, with “2,000” for “2000”, “mosquitoes” for “flies”, “Culex quinquefasciatus” for “Musca domestica”, “P00” for “WHO-N”

[13] = system: cotton aphid (Aphis gossypii); experiment: Aphis gossypii oral test; conditions: 120 h, after 5 days
Description: Aphis gossypii—Oral Test • Solvent: 100 Parts by Weight Acetone
as §3
(§5) 50 μL compound solution is filled in microtiter plates and 150 μL IPL41 insect medium (33%+15% sugar) is added to obtain a total volume of 200 μL per well. Afterwards the plates are sealed with parafilm through which a mixed population of the cotton aphid (Aphis gossypii) can suck on the compound preparation.
as §4

[14] = system: green peach aphid (Myzus persicae); experiment: Myzus persicae oral test; conditions: 120 h, after 5 days
Description: Myzus persicae—Oral Test • Solvent: 100 parts by weight acetone
as §3
as §5, with “green peach” for “cotton”, “(Myzus persicae)” for “(Aphis gossypii)”
as §4

[15] = surface concentration 4 mg/m^2, 30 minutes exposure

| SMILES | mortality at 20 mg/m2 [1] | mortality at 100 g/ha [2] | mortality at 20 mg/m2 [3] | pest or weed control at 1 µg/cm2, 100 g/ha [4] | pest or weed control at 5 µg/cm2, 500 g/ha [4] | mortality at 100 ppm [5] | efficacy (infertile eggs) [6] | mortality at 500 g/ha [7] | pest or weed control at 32 µg/disc, 100 g/ha [8] | nematicidal effect (formation of galls) [9] | mortality at 500 g/ha [10] | mortality at 4 mg/m2 [1, 15] | mortality at 4 mg/m2 [3] | mortality at 100 g/ha [11] | mortality at 4 mg/m2 [12, 15] | mortality at 20 mg/m2 ([12]; surface concentration 20 mg/m^2, 30 minutes exposure) | mortality at 100 ppm [13] | mortality at 20 ppm [14] |
| --- | --- | --- | --- | --- | --- | --- | --- | --- | --- | --- | --- | --- | --- | --- | --- | --- | --- | --- |
| C[C@H](NC(=O)c1cc(OC(F)(F)F)cc(C(C)(C)C#N)c1)c1nc2cccnc2n1-c1ccc(C#N)cn1 [Example I-1] | 80 to 100% | 100% | 80 to 100% | 90% | 80% | 100% | 100% | 100% | 100% | – | – | – | – | – | – | – | – | – |
| CNC(=O)c1ccc(-n2c(C(C)NC(=O)c3cc(C(F)(F)F)cc(C(F)(F)F)c3)nc3cccnc32)nc1 (stereo not drawn) [Example I-25] | – | – | – | – | – | – | – | – | – | 90% | 100% | – | – | – | – | – | – | – |
| C[C@H](NC(=O)c1cc(OC(F)(F)F)cc(C2(C#N)CC2)c1)c1nc2cccnc2n1-c1ccc(C#N)cn1 [Example I-3] | 80 to 100% | 100% | 80 to 100% | 90% | 90% | – | 100% | 90% | 100% | – | 100% | 80 to 100% | 80 to 100% | 100% | 80 to 100% | 80 to 100% | – | – |
| C[C@H](NC(=O)c1cc(OC(F)(F)F)cc(S(C)(=O)=O)c1)c1nc2cc(F)cnc2n1-c1ccc(C#N)cn1 [Example I-38] | – | 100% | – | – | – | – | – | – | 100% | 90% | 100% | – | – | – | – | – | – | – |
| CNC(=O)c1ccc(-n2c(C(C)NC(=O)c3cc(OC(F)(F)F)cc(OC(F)(F)F)c3)nc3cccnc32)nc1 (stereo not drawn) [Example I-27] | – | – | – | – | – | – | – | – | – | 90% | – | – | 80 to 100% | – | – | – | 100% | 100% |
